How the values were obtained:
B. subtilis 168 [1] = assay: Bliss interaction score (quartile over a dose matrix) (fitness difference); higher = more antagonism (negative = synergy)
Method in brief: (§1)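 Growth was read as OD595 when cultures entered stationary phase, and each value was divided by the plate's robust no-drug mean and capped at 1. This normalised ratio is the fitness value, and fitness for each single drug came from the combination data. The Bliss score subtracts the expected fitness, taken as the product, from the observed fitness and is given as quartiles across technical, biological and donor/recipient replicates.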

S. aureus DSM 20231 = assay: as above
Method in brief: as §1

S. aureus Newman = assay: as above
Method in brief: as §1

S. pneumoniae D39V [2] = assay: as above
Method in brief: as §1

B. subtilis 168 [3] = assay: fitness (endpoint OD595 vs no drug) (fraction); higher = more growth
Method in brief: (§2)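 Fitness expresses the optical density reached at the stationary-phase transition as a fraction of the robust mean of no-drug control wells. It is capped at 1. Measurements were OD595 every 30 min for 14 h at 37 °C after inoculation of 384-well plates at OD595 0.01 (30 µl, or 55 µl for S. pneumoniae), minus the first reading.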

S. pneumoniae D39V [4] = assay: as above
Method in brief: as §2
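Throughout, for Bliss interaction score (quartile over a dose matrix): first quartile when negative (synergy) and third quartile when positive (antagonism).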
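Throughout, for fitness (endpoint OD595 vs no drug): OD595 on entry to stationary phase over no-drug wells; at most 1.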

CC1=C(C(=O)O)N2C(=O)[C@@H](NC(=O)[C@H](N)c3ccccc3)[C@H]2SC1 [Cephalexin] + COc1cc(Cc2cnc(N)nc2N)cc(OC)c1OC [Trimethoprim]
Conditions | Bliss interaction score
B. subtilis 168 [1] | 0.113
S. aureus DSM 20231 | -0.058
S. aureus Newman | -0.0582
S. pneumoniae D39V [2] | 0.0759

fitness, B. subtilis 168 [3]
Conditions | first compound 0.125 µg/mL | first compound 0.25 µg/mL | first compound 0.5 µg/mL | first compound 1 µg/mL
partner 0.25 µg/mL | – | 0.685 | – | 0.699
partner 0.5 µg/mL | 0.445 | 0.465 | 0.517 | 0.528

fitness, B. subtilis 168 [3], one replicate
Conditions | partner 0.1 µg/mL | partner 0.125 µg/mL | partner 0.2 µg/mL | partner 0.4 µg/mL | partner 1 µg/mL | partner 2 µg/mL
first compound 0.125 µg/mL | – | – | – | – | 0.48 | 0.501
first compound 0.25 µg/mL | 0.915 | 0.749 | 0.791 | 0.533 | 0.402 | 0.418
first compound 0.5 µg/mL | 0.884 | 0.758 | 0.809 | 0.565 | 0.372 | 0.509
first compound 1 µg/mL | 0.879 | 0.759 | 0.86 | 0.572 | – | –

CC[C@H]1OC(=O)[C@H](C)[C@@H](O[C@H]2C[C@@](C)(OC)[C@@H](O)[C@H](C)O2)[C@H](C)[C@@H](O[C@@H]2O[C@H](C)C[C@H](N(C)C)[C@H]2O)[C@](C)(O)C[C@@H](C)CN(C)[C@H](C)[C@@H](O)[C@]1(C)O [Azithromycin] + CO[C@@H]1[C@@H](OC(N)=O)[C@@H](O)[C@H](Oc2ccc3c(O)c(NC(=O)c4ccc(O)c(CC=C(C)C)c4)c(=O)oc3c2C)OC1(C)C [Novobiocin]
Conditions | Bliss interaction score
B. subtilis 168 [1] | 0.0746
S. aureus DSM 20231 | 0.0496
S. aureus Newman | 0.157
S. pneumoniae D39V [2] | -0.0647

fitness, B. subtilis 168 [3]
Conditions | partner 0.0125 µg/mL | partner 0.025 µg/mL | partner 0.05 µg/mL | partner 0.1 µg/mL | partner 0.2 µg/mL
first compound 0.25 µg/mL | 0.897 | 0.888 | 0.894 | 0.954 | 0.931
first compound 0.5 µg/mL | 0.867 | 0.814 | 0.868 | 0.865 | 0.878
first compound 1 µg/mL | 0.642 | 0.63 | – | – | –

fitness, B. subtilis 168 [3], one replicate
Conditions | first compound 0.5 µg/mL | first compound 1 µg/mL | first compound 2 µg/mL
partner 0.125 µg/mL | 0.772 | 0.765 | 0.347
partner 0.25 µg/mL | 0.781 | 0.597 | 0.167
partner 0.5 µg/mL | 0.507 | 0.473 | 0.0776

CC1=C(C(=O)O)N2C(=O)[C@@H](NC(=O)[C@H](N)c3ccccc3)[C@H]2SC1 [Cephalexin] + CCC[C@@H]1C[C@@H](C(=O)N[C@@H]([C@H]2O[C@H](SC)[C@H](O)[C@@H](O)[C@H]2O)[C@@H](C)O)N(C)C1 [Lincomycin]
Conditions | Bliss interaction score
B. subtilis 168 [1] | -0.0209
S. aureus DSM 20231 | 0.101
S. aureus Newman | 0.0797
S. pneumoniae D39V [2] | 0.159

Conditions | fitness
B. subtilis 168 [3], first compound 0.125 µg/mL, partner 0.1 µg/mL | 0.901
B. subtilis 168 [3], first compound 0.125 µg/mL, partner 0.2 µg/mL | 0.876
B. subtilis 168 [3], first compound 0.125 µg/mL, partner 0.4 µg/mL | 0.852
B. subtilis 168 [3], first compound 0.25 µg/mL, partner 0.1 µg/mL | 0.941
B. subtilis 168 [3], first compound 0.25 µg/mL, partner 0.2 µg/mL | 0.937
B. subtilis 168 [3], first compound 0.25 µg/mL, partner 0.4 µg/mL | 0.913
B. subtilis 168 [3], first compound 0.5 µg/mL, partner 0.1 µg/mL | 0.939
B. subtilis 168 [3], first compound 0.5 µg/mL, partner 0.2 µg/mL | 0.901
B. subtilis 168 [3], first compound 0.5 µg/mL, partner 0.4 µg/mL | 0.852
S. pneumoniae D39V [4], first compound 1 µg/mL, partner 0.215 µg/mL | 0.832
S. pneumoniae D39V [4], first compound 1 µg/mL, partner 0.43 µg/mL | 0.716
S. pneumoniae D39V [4], first compound 1 µg/mL, partner 0.86 µg/mL | 0.403
S. pneumoniae D39V [4], first compound 2 µg/mL, partner 0.43 µg/mL | 0.373
S. pneumoniae D39V [4], first compound 2 µg/mL, partner 0.86 µg/mL | 0.176
S. pneumoniae D39V [4], first compound 4 µg/mL, partner 0.215 µg/mL | 0.0258
S. pneumoniae D39V [4], first compound 4 µg/mL, partner 0.43 µg/mL | 0.0283
S. pneumoniae D39V [4], first compound 4 µg/mL, partner 0.86 µg/mL | 0.0358

fitness, one replicate
Conditions | partner 0.1 µg/mL | partner 0.2 µg/mL | partner 0.4 µg/mL | partner 0.8 µg/mL
B. subtilis 168 [3], first compound 1 µg/mL | ≥ 1 | ≥ 1 | ≥ 1 | –
S. pneumoniae D39V [4], first compound 0.125 µg/mL | – | 0.722 | 0.663 | 0.206
S. pneumoniae D39V [4], first compound 0.25 µg/mL | – | 0.759 | 0.643 | 0.304
S. pneumoniae D39V [4], first compound 0.5 µg/mL | – | 0.786 | 0.702 | 0.288

CNC(C)C1CCC(N)C(OC2C(N)CC(N)C(OC3OCC(C)(O)C(NC)C3O)C2O)O1 (stereo not drawn) [Gentamicin] + CCC[C@@H]1C[C@@H](C(=O)N[C@@H]([C@H]2O[C@H](SC)[C@H](O)[C@@H](O)[C@H]2O)[C@@H](C)O)N(C)C1 [Lincomycin]
main component drawn
Conditions | Bliss interaction score
B. subtilis 168 [1] | 0.1
S. aureus DSM 20231 | 0.106
S. aureus Newman | 0.0735
S. pneumoniae D39V [2] | -0.0859

fitness, main component drawn
Conditions | partner 0.1 µg/mL | partner 0.2 µg/mL | partner 0.215 µg/mL | partner 0.4 µg/mL | partner 0.43 µg/mL | partner 0.8 µg/mL | partner 0.86 µg/mL
B. subtilis 168 [3], first compound 0.0625 µg/mL | 0.851 | 0.858 | – | 0.911 | – | – | –
B. subtilis 168 [3], first compound 0.25 µg/mL | 0.038 | 0.0459 | – | 0.121 | – | – | –
S. pneumoniae D39V [4], first compound 2 µg/mL | – | 0.465 | 0.858 | 0.285 | 0.795 | 0.0324 | 0.558
S. pneumoniae D39V [4], first compound 4 µg/mL | – | 0.455 | 0.843 | 0.257 | 0.716 | 0.0339 | 0.397
S. pneumoniae D39V [4], first compound 8 µg/mL | – | 0.389 | 0.834 | 0.212 | 0.741 | 0.0377 | 0.41

fitness, B. subtilis 168 [3], one replicate, main component drawn
Conditions | first compound 0.0625 µg/mL | first compound 0.125 µg/mL | first compound 0.25 µg/mL
partner 0.8 µg/mL | 0.989 | 0.881 | 0.32
partner 1.6 µg/mL | 0.921 | 0.895 | 0.367

CC1=C(C(=O)O)N2C(=O)[C@@H](NC(=O)[C@H](N)c3ccccc3)[C@H]2SC1 [Cephalexin] + CN(C)C(=O)C(CCN1CCC(O)(c2ccc(Cl)cc2)CC1)(c1ccccc1)c1ccccc1 [Loperamide]
Conditions | Bliss interaction score
B. subtilis 168 [1] | -0.0893
S. aureus DSM 20231 | 0.116
S. aureus Newman | 0.0814
S. pneumoniae D39V [2] | -0.129

Conditions | fitness
B. subtilis 168 [3], first compound 0.125 µg/mL, partner 25 µg/mL | 0.819
B. subtilis 168 [3], first compound 0.125 µg/mL, partner 50 µg/mL | 0.0465
B. subtilis 168 [3], first compound 0.125 µg/mL, partner 100 µg/mL | 0.0315
B. subtilis 168 [3], first compound 0.25 µg/mL, partner 25 µg/mL | 0.803
B. subtilis 168 [3], first compound 0.25 µg/mL, partner 50 µg/mL | 0.039
B. subtilis 168 [3], first compound 0.25 µg/mL, partner 100 µg/mL | 0.025
B. subtilis 168 [3], first compound 0.5 µg/mL, partner 25 µg/mL | 0.712
B. subtilis 168 [3], first compound 0.5 µg/mL, partner 50 µg/mL | 0.0372
B. subtilis 168 [3], first compound 0.5 µg/mL, partner 100 µg/mL | 0.0277
S. pneumoniae D39V [4], first compound 2 µg/mL, partner 34.28 µg/mL | 0.165
S. pneumoniae D39V [4], first compound 4 µg/mL, partner 17.14 µg/mL | 0.0474
S. pneumoniae D39V [4], first compound 4 µg/mL, partner 34.28 µg/mL | 0.0181

fitness, S. pneumoniae D39V [4], one replicate
Conditions | first compound 0.125 µg/mL | first compound 0.25 µg/mL | first compound 0.5 µg/mL | first compound 1 µg/mL | first compound 2 µg/mL | first compound 4 µg/mL
partner 20 µg/mL | ≥ 1 | ≥ 1 | ≥ 1 | – | – | –
partner 40 µg/mL | ≥ 1 | 0.995 | 0.99 | – | – | –
partner 68.57 µg/mL | – | – | – | 0.53 | 0.15 | 0.0031
partner 80 µg/mL | 0.753 | 0.784 | 0.612 | – | – | –

CC[C@H]1OC(=O)[C@H](C)[C@@H](O[C@H]2C[C@@](C)(OC)[C@@H](O)[C@H](C)O2)[C@H](C)[C@@H](O[C@@H]2O[C@H](C)C[C@H](N(C)C)[C@H]2O)[C@](C)(O)C[C@@H](C)CN(C)[C@H](C)[C@@H](O)[C@]1(C)O [Azithromycin] + C[C@H]1COc2c(N3CCN(C)CC3)c(F)cc3c(=O)c(C(=O)O)cn1c23 [Levofloxacin]
Conditions | Bliss interaction score
B. subtilis 168 [1] | 0.0413
S. aureus DSM 20231 | 0.0911
S. aureus Newman | 0.0787
S. pneumoniae D39V [2] | 0.0528

fitness, B. subtilis 168 [3]
Conditions | partner 0.002 µg/mL | partner 0.0039 µg/mL | partner 0.0078 µg/mL | partner 0.0312 µg/mL | partner 0.0625 µg/mL | partner 0.125 µg/mL
first compound 0.25 µg/mL | 0.96 | 0.945 | 0.969 | 0.0317 | 0.0311 | 0.0281
first compound 0.5 µg/mL | 0.848 | 0.808 | 0.862 | 0.0211 | 0.0396 | 0.0302
first compound 1 µg/mL | – | – | – | 0.0198 | 0.0226 | 0.0241

fitness, B. subtilis 168 [3], one replicate
Conditions | first compound 0.5 µg/mL | first compound 1 µg/mL | first compound 2 µg/mL
partner 0.001 µg/mL | 0.925 | 0.906 | 0.209
partner 0.002 µg/mL | – | – | 0.029
partner 0.0039 µg/mL | – | – | 0.0299

CNC(C)C1CCC(N)C(OC2C(N)CC(N)C(OC3OCC(C)(O)C(NC)C3O)C2O)O1 (stereo not drawn) [Gentamicin] + CO[C@@H]1[C@@H](OC(N)=O)[C@@H](O)[C@H](Oc2ccc3c(O)c(NC(=O)c4ccc(O)c(CC=C(C)C)c4)c(=O)oc3c2C)OC1(C)C [Novobiocin]
main component drawn
Conditions | Bliss interaction score
B. subtilis 168 [1] | 0.137
S. aureus DSM 20231 | -0.0708
S. aureus Newman | 0.0684
S. pneumoniae D39V [2] | 0.0522

fitness, B. subtilis 168 [3], main component drawn
Conditions | first compound 0.0625 µg/mL | first compound 0.125 µg/mL | first compound 0.25 µg/mL
partner 0.0125 µg/mL | 0.915 | – | 0.0845
partner 0.025 µg/mL | 0.938 | 0.692 | 0.0329
partner 0.05 µg/mL | 0.998 | 0.705 | –

fitness, B. subtilis 168 [3], one replicate, main component drawn
Conditions | partner 0.1 µg/mL | partner 0.125 µg/mL | partner 0.2 µg/mL | partner 0.25 µg/mL | partner 0.5 µg/mL
first compound 0.0625 µg/mL | ≥ 1 | 0.907 | ≥ 1 | 0.987 | 0.515
first compound 0.125 µg/mL | 0.946 | 0.501 | 0.978 | 0.302 | 0.111
first compound 0.25 µg/mL | 0.152 | 0.056 | 0.476 | 0.0399 | 0.0406
